The source of these data is patent US20090285774A1, “Hepatitis C Virus Inhibitors” (Bristol-Myers Squibb Company, priority 2008, published 2009).

The structures appear in SMILES notation. Like-named read-outs stand apart in the source and are kept apart here.

Experiment [1] addresses T1, HCV NS3/4A protease complex, BMS strain (genotype 1a) (UniProt P27958, species not given/STRAIN_BMS).
T1 construct: DNA encoding the recombinant HCV NS3/4A protease complex (amino acids 1027 to 1711) for these strains [given for H77 and J4L6S only]; These are given only for the H77 and J4L6S constructs
The experiment is described as follows: FRET peptide assay to monitor HCV NS3/4A proteolytic activity (BMS strain). The class given is biochemical. As to conditions: NS3/4A BMS strain, read-out: IC50 (range or value). The source says:
HCV NS3 protease complexes, derived from the BMS strain, H77 strain or J4L6S strain, were generated, as described below. These purified recombinant proteins were generated for use in a homogeneous assay (see below) to provide an indication of how effective compounds of the present disclosure would be in inhibiting HCV NS3 proteolytic activity.
Serum from an HCV-infected patient was obtained from Dr. T. Wright, San Francisco Hospital. An engineered full-length cDNA (compliment deoxyribonucleic acid) template of the HCV genome (BMS strain) was constructed from DNA fragments obtained by reverse transcription-PCR (RT-PCR) of serum RNA (ribonucleic acid) and using primers selected on the basis of homology between other genotype 1a strains. From the determination of the entire genome sequence, a genotype 1a was assigned to the HCV isolate according to the classification of Simmonds et al. (See P Simmonds, K A Rose, S Graham, S W Chan, F McOmish, B C Dow, E A Follett, P L Yap and H Marsdeni, J. Clin. Microbiol., 31(6):1493-1503 (1993)). […] The infectious clones, H77 (1a genotype) and J4L6S (1b genotype) were obtained from R. Purcell (NIH) and the sequences are published in Genbank (AAB67036, see Yanagi, M., Purcell, R. H., Emerson, S. U. and Bukh, J. Proc. Natl. Acad. Sci. U.S.A. 94(16):8738-8743 (1997); AF054247, see Yanagi, M., St Claire, M., Shapiro, M., Emerson, S. U., Purcell, R. H. and Bukh, J, Virology 244 (1), 161-172. (1998)).
The H77 and J4L6S strains were used for production of recombinant NS3/4A protease complexes. DNA encoding the recombinant HCV NS3/4A protease complex (amino acids 1027 to 1711) for these strains were manipulated as described by P. Gallinari et al. (see Gallinari P, Paolini C, Breruian D, Nardi C, Steinlkuhler C, De Francesco R. Biochemistry. 38(17);5620-32, (1999)). Briefly, a three-lysine solubilizing tail was added at the 3′-end of the NS4A coding region. The cysteine in the P1 position of the NS4A-NS4B cleavage site (amino acid 1711) was changed to a glycine to avoid the proteolytic cleavage of the lysine tag. Furthermore, a cysteine to serine mutation was introduced by PCR at amino acid position 1454 to prevent the autolytic cleavage in the NS3 helicase domain. The variant DNA fragment was cloned in the pET21b bacterial expression vector (Novagen) and the NS3/4A complex was expressed in Escherichia. coli strain BL21 (DE3) (Invitrogen) following the protocol described by P. Gallinari et al. (see Gallinari P, Breinan D, Nardi C, Brunetti M, Tomei L, Steinkuhler C, De Francesco R., J Virol. 72(8):6758-69 (1998)) with modifications. Briefly, the NS3/4A protease complex expression was induced with 0.5 millimolar (mM) Isopropyl β-D-1-thiogalactopyranoside (IPTG) for 22 hours (h) at 20° C. A typical fermentation (1 Liter (L)) yielded approximately 10 grams (g) of wet cell paste. The cells were resuspended in lysis buffer (10 mL/g) consisting of 25 mM N-(2-Hydroxyethyl)Piperazine-N′-(2-Ethane Sulfonic acid) (HEPES), pH 7.5, 20% glycerol, 500 mM Sodium Chloride (NaCl), 0.5% Triton X-100, 1 microgram/milliliter (“μg/mL”) lysozyme, 5 mM Magnesium Chloride (MgCl2), 1 μg/ml DnaseI, 5mM β-Mercaptoethanol (βME), Protease inhibitor-Ethylenediamine Tetraacetic acid (EDTA) free (Roche), homogenized and incubated for 20 minutes (min) at 4° C. The homogenate was sonicated and clarified by ultra-centrifugation at 235000 g for 1 hour (h) at 4° C. Imidazole was added to the supernatant to a final concentration of 15 mM and the pH adjusted to 8.0. The crude protein extract was loaded on a Nickel-Nitrilotriacetic acid (Ni-NTA) column pre-equilibrated with buffer B (25 mM HEPES, pH 8.0, 20% glycerol, 500 mM NaCl, 0.5% Triton X-100, 15 mM imidazole, 5 mM βMB). The sample was loaded at a flow rate of 1 mL/min. The column was washed with 15 column volumes of buffer C (same as buffer B except with 0.2% Triton X-100). The protein was eluted with 5 column volumes of buffer D (same as buffer C except with 200 mM Imidazole). […]

Experiment [2] deals with HCV replicon (strain 1b) in HUH-7 cells. Put plainly: HCV replicon FRET assay. Type of experiment: cell-based. As to conditions: Hepatitis C virus, Huh-7, HCV replicon, read-out: EC50 (range or value). The text has this:
An HCV replicon whole cell system was established as described by Lohmann V, Korner F, Koch J, Herian U, Theilmann L, Bartenschlager R., Science 285(5424):110-3 (1999). This system enabled us to evaluate the effects of our HCV Protease compounds on HCV RNA replication. Briefly, using the HCV strain 1b sequence described in the Lohmann paper (Assession number: AJ238799), an HCV cDNA was synthesized by Operon Technologies, Inc. (Alameda, Calif.), and the full-length replicon was then assembled in plasmid pGem9zf(+) (Promega, Madison, Wis.) using standard molecular biology techniques. The replicon consists of (i) the HCV 5′ UTR fused to the first 12 amino acids of the capsid protein, (ii) the neomycin phosphotransferase gene (neo), (iii) the IRES from encephalomyocarditis virus (EMCV), and (iv) HCV NS3 to NS5B genes and the HCV 3′ UTR. Plasmid DNAs were linearized with ScaI and RNA transcripts were synthesized in vitro using the T7 MegaScript transcription kit (Aibion, Austin, Tex.) according to manufacturer's directions. In vitro transcripts of the cDNA were transfected into the human hepatoma cell line, HUH-7. […] Resulting cell lines were characterized for positive and negative strand RNA production and protein production over time.
The HCV replicon FRET assay was developed to monitor the inhibitory effects of compounds described in the disclosure on NCV viral replication. HUH-7 cells, constitutively expressing the HCV replicon, were grown in Dulbecco's Modified Eagle Media (DMEM) (Gibco-BRL) containing 10% Fetal calf serum (FCS) (Sigma) and 1 mg/ml G418 (Gibco-BRL). Cells were seeded the night before (1.5×10^4 cells/well) in 96-well tissue-culture sterile plates. Compound and no compound controls were prepared in DMEM containing 4% FCS, 1:100 Penicillin/Streptomysin (Gibco-BRL), 1:100 L-glutamine and 5% DMSO in the dilution plate (0.5% DMSO final concentration in the assay). Compound/DMSO mixes were added to the cells and incubated for 4 days at 37° C. After 4 days, cells were first assessed for cytotoxicity using alamar Blue (Trek Diagnotstic Systems) for a CC50 reading. The toxicity of compound (CC50) was determined by adding 1/10th volume of alamar Blue to the media incubating the cells. After 4 h, the fluorescence signal from each well was read, with an excitation wavelength at 530 nm and an emission wavelength of 580 nm, using the Cytofluor Series 4000 (Perspective Biosystems). Plates were then rinsed thoroughly with Phosphate-Buffered Saline (PBS) (3 times 150 μl).
(In general: A replicon is a self-replicating genome or part of one, used to study replication in cells.)

T1 sequence (P27958 1027-1657, stated change not applied, one chain of several): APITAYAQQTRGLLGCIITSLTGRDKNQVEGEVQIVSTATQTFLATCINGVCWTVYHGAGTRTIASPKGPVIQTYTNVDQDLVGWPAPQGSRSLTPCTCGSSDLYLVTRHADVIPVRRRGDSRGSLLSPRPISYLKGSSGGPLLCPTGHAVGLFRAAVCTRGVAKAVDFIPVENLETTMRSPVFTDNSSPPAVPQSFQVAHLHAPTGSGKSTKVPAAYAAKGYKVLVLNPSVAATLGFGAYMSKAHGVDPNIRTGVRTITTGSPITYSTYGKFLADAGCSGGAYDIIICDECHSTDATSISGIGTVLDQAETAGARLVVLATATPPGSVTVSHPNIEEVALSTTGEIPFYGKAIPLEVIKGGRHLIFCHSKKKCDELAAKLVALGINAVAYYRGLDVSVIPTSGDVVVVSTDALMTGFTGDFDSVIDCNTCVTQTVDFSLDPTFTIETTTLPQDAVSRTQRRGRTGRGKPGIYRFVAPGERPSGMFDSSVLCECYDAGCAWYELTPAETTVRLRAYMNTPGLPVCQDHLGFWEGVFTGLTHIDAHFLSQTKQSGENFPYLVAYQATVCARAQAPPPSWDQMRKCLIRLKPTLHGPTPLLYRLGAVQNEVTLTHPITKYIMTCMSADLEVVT

Usually IC50 stands for the point on the concentration scale where inhibition reaches its midpoint. The term EC50 denotes the concentration that produces a half-maximal response. As to `C=C[C@@H]1C[C@]1(NC(=O)[C@@H]1C[C@@H](Oc2cc(-c3cccs3)cc(-c3ccccc3)n2)CN1C(=O)C(Nc1cc(C)cc(C)n1)C(C)C)C(=O)NS(=O)(=O)C1CC1` (single isomer, unassigned) [Compound 1A], the IC50 in experiment [1] (value) was 14 nM. In addition, the EC50 in experiment [2] (value) turned out to be 65.3 nM.
With `C=C[C@@H]1C[C@]1(NC(=O)[C@@H]1C[C@@H](Oc2cc(-c3cccs3)cc(-c3ccccc3)n2)CN1C(=O)C(Nc1cc(C)cc(C)n1)C(C)C)C(=O)NS(=O)(=O)C1CC1` (single isomer, unassigned) [Compound 1B], the IC50 in experiment [1] (activity range) lay in the range of 20 to 200 nM. The EC50 in experiment [2] (activity range) lay within 100 to 1000 nM.
As for `C=C[C@@H]1C[C@]1(NC(=O)[C@@H]1C[C@@H](OC(=O)N2Cc3cccc(F)c3C2)CN1C(=O)C(Nc1cc(C)cc(C)n1)C(C)C)C(=O)NS(=O)(=O)C1CC1` (single isomer, unassigned) [Compound 2B], the IC50 in experiment [1] (value) amounted to 135 nM. The EC50 in experiment [2] (value) is 3480 nM.
For `C=C[C@@H]1C[C@]1(NC(=O)C1CC(Oc2cc(-c3ccccc3)nc3cc(OC)ccc23)CN1C(=O)[C@@H](Nc1nc(CC)cs1)C(C)(C)C)C(=O)NS(=O)(=O)C1CC1` (stereo partly drawn) [Compound 3] the same measures were 4.55 nM and 14.6 nM.
On to `C=C[C@@H]1C[C@]1(NC(=O)C1CC(Oc2cc(-c3ccccc3)nc3cc(OC)ccc23)CN1C(=O)[C@@H](Nc1nc(C(C)(C)C)cs1)C(C)(C)C)C(=O)NS(=O)(=O)C1CC1` (stereo partly drawn) [Compound 4], for which the IC50 in experiment [1] (activity range) is 4 to 20 nM. For the same compound, the EC50 in experiment [2] (activity range) was 14 to 100 nM.
On the same counts, the results for `C=C[C@@H]1C[C@]1(NC(=O)C1CC(Oc2cc(-c3ccccc3)nc3cc(OC)ccc23)CN1C(=O)[C@@H](Nc1nc(C(F)(F)F)cs1)C(C)(C)C)C(=O)NS(=O)(=O)C1CC1` (stereo partly drawn) [Compound 5] are 4 to 20 nM and 14 to 100 nM.
